One data set in a line: Rat hepatocyte stability. Format: in vitro ADME. The following applies: hepatocytes; for half-life: read-out: Hepatocytes (rat) T1/2.
Data set [1] is described as follows: Ligand-lipophilicity efficiency (LLE). Type of data set: physicochemical. From the text: Ligand-lipophilicity efficiency (LLE) is a parameter used in drug design and drug discovery to evaluate the quality of research compounds, linking potency and lipophilicity.
To follow LLE values, the following equation was used: […]
Suitable LLE value are typically higher than 3 or higher than 5.

A further data set concerns the target T1, CYP2B6 (Homo sapiens, UniProt P20813).
T1 construct: pre-incubation of the human liver microsomes with the test compound; tissue Corning; host or cells: human liver microsomes
T1 sequence (P20813 1-491): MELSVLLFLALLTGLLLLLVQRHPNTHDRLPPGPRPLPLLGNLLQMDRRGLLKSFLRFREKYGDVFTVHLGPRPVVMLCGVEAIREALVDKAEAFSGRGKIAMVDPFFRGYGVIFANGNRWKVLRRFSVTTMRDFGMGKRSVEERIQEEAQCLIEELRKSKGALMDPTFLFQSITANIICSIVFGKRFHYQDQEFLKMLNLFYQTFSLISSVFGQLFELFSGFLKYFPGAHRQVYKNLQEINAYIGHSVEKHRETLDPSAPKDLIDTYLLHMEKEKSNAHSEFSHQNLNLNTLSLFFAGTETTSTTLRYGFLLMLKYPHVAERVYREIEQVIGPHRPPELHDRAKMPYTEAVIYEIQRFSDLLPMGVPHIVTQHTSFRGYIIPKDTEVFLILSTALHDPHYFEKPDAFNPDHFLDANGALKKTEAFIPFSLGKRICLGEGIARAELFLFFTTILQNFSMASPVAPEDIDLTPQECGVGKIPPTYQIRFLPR
Put plainly: CYP inhibition / time-dependent inhibition, CYP2B6_Bupropion. To be noted: role: inhibitor. Type of data set: in vitro ADME.

Another data set deals with MIA-OA rats. Put plainly: Monosodium iodoacetate-induced osteoarthritis (MIA-OA) pain model. Format: in vivo, rat. The procedure:
All animal experiments were carried out according to the Guide for the Care and Use of Laboratory Animals (2011 edition) and approved by the Israel National Institutional Animal Care and Use Committee (IACUC). Young adult male SD rats (Envigo RMS, Israel), were used for in vivo efficacy: Spared Nerve Injury (SNI), Distal Tibial Injury (DTI) and Post-operative Pain (POP), 200-220 grams, Chronic Post-Ischemia Pain (CPIP) 275-325 grams, Monosodium iodoacetate-induced osteoarthritis (MIA-OA) 180-220 grams; for in vivo safety: 200-250 grams at study initiation. […] The health status of the animals used in this study was examined upon their arrival. Only animals in good health were acclimatized to laboratory conditions and were used in the studies. All studies were performed following at least five days of animal acclimation. During acclimation and throughout the entire study duration, animals were housed within a limited-access rodent facility and kept in groups with a maximum of 2-3 rats per polypropylene cage. The cages were fitted with solid bottoms and filled with sterile wood shavings as bedding material. Animals were provided ad libitum with a commercial, sterile rodent diet and had free access to drinking water that was supplied to each cage via polyethylene bottles with stainless steel sipper tubes. A feed lot analysis of the diet batch used in the study was included in the archives with the study data. Water was monitored periodically. Plastic cylinders for playing and hiding and wooden balls or sticks were added to the cages for environmental enrichment.
Monosodium iodoacetate-induced osteoarthritis (MIA-OA): The animals were anaesthetized using an Isoflurane+O2 mixture. Then 50 μl of MIA at a concentration of 60 mg/mL was injected into the right knee joint using a 30 G needle. On study days 13 and 14 following MIA injection, the animals' dynamic weight bearing and response to von Frey filaments were measured.
Mechanical Allodynia (Von Frey): The rats were placed in an enclosure and positioned on a metal mesh surface but allowed to move freely. […]

Another data set deals with rats. Put plainly: Accelerating rotarod. Format: in vivo, rat. On the procedure:
Rotarod: There were two days of training in which rats were trained at a constant speed of 5 RPM for 180 seconds. After each fall the rats were placed back on the rotating rod until 180 seconds were reached. Then, the actual test started on study day 0 using the accelerating rotarod methodology. Animals were placed on the rod, which was accelerated 5-40 RPM over 180 seconds. Acceleration rate (0.19 RPM/second) was calculated from delta velocity (v2−v1) divided by delta time (t2−t1). The time to the first fall of each animal was documented, in addition to the distance and speed.
For orientation: Falling from the rotarod earlier than controls is read as motor impairment.

The target in the next data set is T2, opioid delta receptor (Homo sapiens, UniProt P41143).
T2 construct: Eurofins DiscoverX, USA
In words: Functional selectivity panel, opioid delta receptor. Type of data set: biochemical. On the procedure: A broad panel of 78 recombinant targets was tested for pharmacologic activity in vitro through a variety of functional assays (Eurofins DiscoverX, USA), as part of the National Institute of Neurological Disorders and Stroke (NINDS) Preclinical Screening Platform for Pain (PSPP) program. The biological targets for the in vitro profiling have been selected based on avoiding opioid receptor stimulation and targets known to be associated with adverse events or targeted by drugs of abuse. […] For each test, a reference compound was evaluated at the target of interest as a positive control.

Where two headings read alike, the source gives them in different places.

T2 sequence (P41143 whole entry): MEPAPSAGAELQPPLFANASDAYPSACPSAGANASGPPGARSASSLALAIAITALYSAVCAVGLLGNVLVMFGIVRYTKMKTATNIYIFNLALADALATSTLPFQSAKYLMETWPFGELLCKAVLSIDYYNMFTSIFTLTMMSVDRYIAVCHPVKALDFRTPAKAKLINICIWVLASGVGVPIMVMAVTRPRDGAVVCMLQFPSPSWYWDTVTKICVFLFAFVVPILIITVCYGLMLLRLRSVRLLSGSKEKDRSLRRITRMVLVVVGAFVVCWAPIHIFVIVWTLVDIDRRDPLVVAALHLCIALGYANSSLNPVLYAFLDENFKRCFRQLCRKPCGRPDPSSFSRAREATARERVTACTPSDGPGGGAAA
Experimental for CYP2B6: The time-dependent inactivation potency of the test compound to CYP enzymatic activities was assessed by the pre-incubation of the human liver microsomes with the test compound in the presence and absence of NADPH, followed by the incubation with the discrete marker substrates, as follows.
Pre-incubation with human liver microsomes (HLMs): The TDI inactivation potency on CYP enzymatic activities was evaluated through pre-incubation with HLMs (Corning). […] Concurrently, a set of known time-dependent inactivators was also prepared in duplicate for comparison. Following this, NADPH (1.0 mM) was added to one group (Group 1), and an equal volume of potassium phosphate buffer to the second group (Group 2), marking the beginning of a 30-minute pre-incubation at 37° C.
Incubation: After pre-incubation, the marker substrate, or marker substrate plus NADPH was added to the mixture, thereby initiating the incubation. The duration of the incubation was dependent on the type of CYP isoform being evaluated.
Termination of Reaction: Following the incubation, ice-cooled acetonitrile containing the internal standard (IS) was added to halt the reactions. Metabolites generated from the marker substrates were then measured via LC-MS/MS, assessed based on peak area ratios of the analyte to IS.

Usually CLint scaled stands for the capacity of the preparation to metabolise the compound, expressed as a volume cleared per time. Higher therefore signals faster metabolism. For `O=C(Cc1cc(-n2cc(Cl)c3cc(Cl)cc(Cl)c32)ccc1F)NCCO` [Compound 627], in the data set “Rat hepatocyte stability”, the CLint scaled was determined as 514 mL/min/kg and the half-life turned out to be 12.6 min.
Consider `CC(C)c1cc(Cl)cc(Cl)c1Nc1ccc(F)c(CC(=O)NCC(C)(C)O)c1` [NH91, reference compound], for which, in data set [1], the LLE came out at 1.6, the “LLE Kv 7.2/7.3” value is 0.8 and the “LLE TRPV1” value is given as −0.35.
Usually IC50 stands for the concentration that gives 50% inhibition. Take `O=C(Cc1nccc(-n2cc(Cl)c3cc(Cl)cc(Cl)c32)n1)NC1COCC1O` (stereo not drawn) [Compound 760]: on CYP2B6 (Table 9, read-out: CYP inhibition IC50 CYP2B6), the IC50 came out at 34.9 µM. Besides, the “Pain relief in osteoarthritic pain model” value with MIA-OA rats (3-30 mg/kg PO, vs naproxen 30 mg/kg PO) is “superior in both effect and duration to high dose of naproxen”. In the data set with MIA-OA rats (Rattus norvegicus, po, read-out: Effective dose, osteoarthritic pain), the minimal effective dose was in the range of 3 to 30 mg/kg. Also, the “Rotarod” value in the data set with rats (up to 300 mg/kg oral) is on record as “displayed safety potential at up to 300 mg/kg oral dosing”. Also, at opioid delta receptor (up to 10 micromolar), the “Effect on Opioid-delta” value is recorded as “no effect”.
Take `Cc1cn(-c2ccc(F)c(CC(=O)NCC(C)(C)O)c2)c2c(Cl)cc(Cl)cc12` [Compound 421]: the LLE in data set [1] worked out at 2.1.
As for `O=C(Cc1cncc(-n2cc(Cl)c3cc(Cl)cc(Cl)c32)c1)N[C@@H]1COC[C@H]1O` [Compound 661], in the data set “Rat hepatocyte stability”, the CLint scaled came to 1140 mL/min/kg. The half-life in “Rat hepatocyte stability” was 5.7 min. Moreover, the IC50 at CYP2B6 ((+)NADPH pre-incubation, substrate bupropion, read-out: IC50 (+)NADPH CYP2B6_Bupropion) is 8.91 µM; at CYP2B6 ((−)NADPH pre-incubation, substrate bupropion, read-out: IC50 (−)NADPH CYP2B6_Bupropion), 11 µM; against opioid delta receptor, 10 µM. Further, the “Reversal of PWT” value in the data set on MIA-OA rats (100 mg/kg, 6 hour post-dose) stood at 33%. In the data set on rats (20 and 50 mg/kg PO, 1 and 4 hour post-dose), the “Rotarod performance” value is listed as “did not affect rotarod performance”.

These data come from patent publication US20260327211A1, “MODULATORS OF A POTASSIUM CHANNEL AND OF TRPV1 CHANNEL AND USES THEREOF” (Bsense Bio Therapeutics Ltd., priority 2023, published 2026).
